System: NCI-H226
Test: 72H TEAD Proliferation Assay (Cell Titer Glo 2.0)
Format: cell-based
Conditions: Homo sapiens, NCI-H226, 72 h, CTG 2.0, cell line not given (NCI-H226 responsive, NCI-H28 non-responsive)
Summary of the method: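 NF2-deficient NCI-H226 mesothelioma cells, TEAD-dependent, treated 72 h; NF2-wild-type NCI-H28 serves as the TEAD-independent counter-screen for off-target cytotoxicity. Viable cells quantified by CellTiter-Glo 2.0 luminescence; background and time-zero signal subtracted, GI50 from nonlinear dose-response fit.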

`COc1cc(-c2ccc(C(F)(F)F)cc2)nc2cc(C(=O)NCCC(=O)C(F)(F)F)ccc12` [I-362, 4-Methoxy-N-(4,4,4-trifluoro-3-oxobutyl)-2-(4-(trifluoromethyl)phenyl)quinoline-7-carboxamide] and `COc1cc(-c2ccc(C(F)(F)F)cc2)nc2cc(C(=O)NCC(O)C(F)(F)F)ccc12` (centres unmarked) [I-382, 4-methoxy-N-(3,3,3-trifluoro-2-hydroxypropyl)-2-(4-(trifluoromethyl)phenyl)quinoline-7-carboxamide] fall in the same range of GI50: 1000 to 5000 nM for the first, 1000 to 5000 nM for the second.

`COc1cc(-c2ccc(C(F)(F)F)cc2)nc2cc(C(=O)N[C@@H](CO)c3ccc(O)cc3)ccc12` [I-363, (R)—N-(2-hydroxy-1-(4-hydroxyphenyl)ethyl)-4-methoxy-2-(4-(trifluoromethyl)phenyl)quinoline-7 carboxamide] and `COc1cc(-c2ccc(C(F)(F)F)cc2)nc2cc(C(=O)N[C@@H](CO)c3ccncc3)ccc12` [I-366, (R)—N-(2-hydroxy-1-(pyridin-4-yl)ethyl)-4-methoxy-2-(4-(trifluoromethyl)phenyl)quinoline-7-carboxamide] cannot be ordered by GI50: no more than 1000 nM for the first, no more than 1000 nM for the second.

`COc1cc(-c2ccc(C(F)(F)F)cc2)nc2cc(C(=O)N[C@@H](CO)c3ccccn3)ccc12` [I-365, (R)—N-(2-hydroxy-1-(pyridin-2-yl)ethyl)-4-methoxy-2-(4-(trifluoromethyl)phenyl)quinoline-7-carboxamide] and `COc1cc(-c2ccc(C(F)(F)F)cc2)nc2cc(C(=O)N[C@@H](CO)Cc3ccccc3)ccc12` [I-369, (R)—N-(1-hydroxy-3-phenylpropan-2-yl)-4-methoxy-2-(4-(trifluoromethyl)phenyl)quinoline-7-carboxamide] cannot be ordered by GI50: no more than 1000 nM for the first, no more than 1000 nM for the second.

`COc1cc(-c2ccc(C(F)(F)F)cc2)nc2cc(C(=O)N[C@@H](CO)CC(C)C)ccc12` [I-370, (R)—N-(1-hydroxy-4-methylpentan-2-yl)-4-methoxy-2-(4-(trifluoromethyl)phenyl)quinoline-7-carboxamide] and `C#Cc1cc(-c2ccc(C(F)(F)F)cc2)nc2cc(C(=O)N[C@H](CC)CO)ccc12` [I-400, (R)-4-ethynyl-N-(1-hydroxybutan-2-yl)-2-(4-(trifluoromethyl)phenyl)quinoline-7-carboxamide] cannot be ordered by GI50: 1000 to 5000 nM for the first, no more than 1000 nM for the second.

First: COc1cc(-c2ccc(C(F)(F)F)cc2)nc2cc(C(=O)N3CCC[C@@H]3CO)ccc12 [I-371, (R)-(2-(hydroxymethyl)pyrrolidin-1-yl) (4-methoxy-2-(4-(trifluoromethyl)phenyl)quinolin-7-yl)methanone]
Second: O=C(O)c1ccc2c(OC3CC3)cc(-c3ccc(C(F)(F)F)cc3)nc2c1 [I-395, 4-cyclopropoxy-2-(4-(trifluoromethyl)phenyl)quinoline-7-carboxylic acid]
The GI50 of the first is higher: 5000 to 10000 nM for the first, no more than 1000 nM for the second.

`C[C@@H](CO)NC(=O)c1ccc2c(OCC3CC3)cc(-c3ccc(C(F)(F)F)cc3)nc2c1` [I-374, (S)-4-(cyclopropylmethoxy)-N-(1-hydroxypropan-2-yl)-2-(4-(trifluoromethyl)phenyl)quinoline-7-carboxamide] and `O=C(O)c1ccc2c(OCC3CC3)cc(-c3ccc(C(F)(F)F)cc3)nc2c1` [I-375, 4-(cyclopropylmethoxy)-2-(4-(trifluoromethyl)phenyl)quinoline-7-carboxylic acid] cannot be ordered by GI50: 1000 to 5000 nM for the first, no more than 1000 nM for the second.

`COc1cc(-c2ccc(C(F)(F)F)cc2)nc2cc(NC(=O)[C@@H](CO)c3ccccc3)ccc12` [I-376, (R)-3-Hydroxy-N-(4-methoxy-2-(4-(trifluoromethyl)phenyl)quinolin-7-yl)-2-phenylpropanamide] and `COc1cc(-c2ccc(C(F)(F)F)cc2)nc2cc(NS(C)(=O)=O)ccc12` [I-383, N-(4-methoxy-2-(4-(trifluoromethyl)phenyl)quinolin-7-yl)methanesulfonamide] fall in the same range of GI50: 1000 to 5000 nM for the first, 1000 to 5000 nM for the second.

`C=CC(=O)Nc1ccc2c(OC)cc(-c3ccc(C(C)(C)C)cc3)nc2c1` [I-384, N-(2-(4-(Tert-butyl)phenyl)-4-methoxyquinolin-7-yl)acrylamide] and `CC(C)Oc1cc(-c2ccc(C(F)(F)F)cc2)nc2cc(C(=O)O)ccc12` [I-394, 4-isopropoxy-2-(4-(trifluoromethyl)phenyl)quinoline-7-carboxylic acid] cannot be ordered by GI50: no more than 1000 nM for the first, no more than 1000 nM for the second.

Compared with `CC(C)(C)c1ccc(-c2nc3cc(C(=O)NCCOCCOCCN)ccc3n3cccc23)cc1` [I-385, N-(2-(2-(2-Aminoethoxy)ethoxy)ethyl)-4-(4-(tert-butyl)phenyl)pyrrolo[1,2-a]quinoxaline-7-carboxamide], `CCOc1cc(-c2ccc(C(F)(F)F)cc2)nc2cc(C(=O)O)ccc12` [I-393, 4-ethoxy-2-(4-(trifluoromethyl)phenyl)quinoline-7-carboxylic acid] is lower in GI50: 5000 to 10000 nM for the first, no more than 1000 nM for the second.

`C[C@H](CO)NC(=O)c1ccc2c(C3CC3)cc(-c3ccc(C(F)(F)F)cc3)nc2c1` [I-386, (R)-4-cyclopropyl-N-(1-hydroxypropan-2-yl)-2-(4-(trifluoromethyl)phenyl)quinoline-7-carboxamide] and `CC[C@H](CO)NC(=O)c1ccc2c(C3CC3)cc(-c3ccc(C(F)(F)F)cc3)nc2c1` [I-399, (R)-4-cyclopropyl-N-(1-hydroxybutan-2-yl)-2-(4-(trifluoromethyl)phenyl)quinoline-7-carboxamide] cannot be ordered by GI50: no more than 1000 nM for the first, no more than 1000 nM for the second.

First: O=C(O)c1ccc2c(C3CC3)cc(-c3ccc(C(F)(F)F)cc3)nc2c1 [I-387, 4-cyclopropyl-2-(4-(trifluoromethyl)phenyl)quinoline-7-carboxylic acid]
Second: O=C(O)c1ccc2c(C3CCOCC3)cc(-c3ccc(C(F)(F)F)cc3)nc2c1 [I-390, 4-(tetrahydro-2H-pyran-4-yl)-2-(4-(trifluoromethyl)phenyl)quinoline-7-carboxylic acid]
The GI50 of the first is lower: no more than 1000 nM for the first, 5000 to 10000 nM for the second.

`Cn1cnc(-c2cc(-c3ccc(C(F)(F)F)cc3)nc3cc(C(=O)O)ccc23)c1` [I-388, 4-(1-methyl-1H-imidazol-4-yl)-2-(4-(trifluoromethyl)phenyl)quinoline-7-carboxylic acid] and `O=C(O)c1ccc2c(-c3cnco3)cc(-c3ccc(C(F)(F)F)cc3)nc2c1` [I-389, 4-(oxazol-5-yl)-2-(4-(trifluoromethyl)phenyl)quinoline-7-carboxylic acid] cannot be ordered by GI50: 1000 to 5000 nM for the first, no more than 1000 nM for the second.

`O=C(O)c1ccc2c(N3CCCCC3)cc(-c3ccc(C(F)(F)F)cc3)nc2c1` [I-391, 4-(piperidin-1-yl)-2-(4-(trifluoromethyl)phenyl)quinoline-7-carboxylic acid] and `CN(C)c1cc(-c2ccc(C(F)(F)F)cc2)nc2cc(C(=O)O)ccc12` [I-392, 4-(dimethylamino)-2-(4-(trifluoromethyl)phenyl)quinoline-7-carboxylic acid] fall in the same range of GI50: 1000 to 5000 nM for the first, 1000 to 5000 nM for the second.

First: CC(=O)c1cc(-c2ccc(C(F)(F)F)cc2)nc2cc(C(=O)O)ccc12 [I-396, 4-acetyl-2-(4-(trifluoromethyl)phenyl)quinoline-7-carboxylic acid]
Second: N#Cc1cc(-c2ccc(C(F)(F)F)cc2)nc2cc(C(=O)O)ccc12 [I-401, 4-cyano-2-(4-(trifluoromethyl)phenyl)quinoline-7-carboxylic acid]
The GI50 of the first is lower: 1000 to 5000 nM for the first, 5000 to 10000 nM for the second.

`CC[C@H](CO)NC(=O)c1ccc2c(OC)cc(-c3c(Cl)cc(C(F)(F)F)cc3Cl)nc2c1` [I-398, (R)-2-(2,6-dichloro-4-(trifluoromethyl)phenyl)-N-(1-hydroxybutan-2-yl)-4-methoxyquinoline-7-carboxamide] showed a GI50 of 1000 to 5000 nM.

— US12655150B2 (Cedilla Therapeutics, Inc., priority 2021, dated 2026)
